Assay results: ChEMBL document CHEMBL3797079, “Synergistic reduction of HIV-1 infectivity by 5-azacytidine and inhibitors of ribonucleotide reductase” (Bioorg Med Chem, 2016)
The source made the active and inactive calls. No cut-off for these calls is given here.

What was measured:
[1] = Reduction in dATP level in human U373-MAGI cells at 2.5 nM after 6 hrs by LC-MS/MS analysis; assay type: functional; set-up: scale not given: the % may be the effect or the level left
U373-MAGI [2] = assay: Reduction in dCTP level in human U373-MAGI cells at 25 nM after 6 hrs by LC-MS/MS analysis; assay type: functional, cell-based
U373-MAGI [3] = assay: Reduction in dGTP level in human U373-MAGI cells at 2.5 nM after 6 hrs by LC-MS/MS analysis; assay type: functional, cell-based
[4] = tested on: Human immunodeficiency virus 1; assay: Potentiation of 5-Aza-C-induced antiviral activity against VSV-G pseudotyped HIV-1 NL4-3 infected in human U373-MAGI cells assessed as decrease in 5-Aza-C EC50 at 2.5 nM preincubated for 2 hrs followed by 5-Aza-C addition for 2 hrs and subsequent viral infection measured at 72 hrs post infection by flow cytometric analysis relative to control; assay type: functional
U373-MAGI [5] = assay: Increase in 5-aza-dCTP/dCTP ratio in human U373-MAGI cells at 2.5 nM preincubated for 2 hrs followed by 5-aza-C addition measured after 4 hrs by LC-MS/MS analysis relative to 5-aza-C; assay type: functional, cell-based
U373-MAGI [6] = assay: Reduction in dCTP level in human U373-MAGI cells at 25 nM preincubated for 2 hrs followed by 5-aza-C addition measured after 4 hrs by LC-MS/MS analysis relative to 5-aza-C; assay type: functional, cell-based
U373-MAGI [7] = assay: Increase in 5-aza-dCTP/dCTP ratio in human U373-MAGI cells at 25 nM preincubated for 2 hrs followed by 5-aza-C addition measured after 4 hrs by LC-MS/MS analysis relative to 5-aza-C; assay type: functional, cell-based
U373-MAGI [8] = assay: Reduction in 5-aza-dCTP level in human U373-MAGI cells at 2.5 nM preincubated for 2 hrs followed by 5-aza-C addition measured after 4 hrs by LC-MS/MS analysis; assay type: functional, cell-based
U373-MAGI [9] = assay: Reduction in dTTP level in human U373-MAGI cells at 25 nM after 6 hrs by LC-MS/MS analysis; assay type: functional, cell-based
U373-MAGI [10] = assay: Reduction in dCTP level in human U373-MAGI cells at 2.5 nM after 6 hrs by LC-MS/MS analysis; assay type: functional, cell-based
U373-MAGI [11] = assay: Reduction in dCTP level in human U373-MAGI cells at 2.5 nM preincubated for 2 hrs followed by 5-aza-dC addition measured after 4 hrs by LC-MS/MS analysis relative to 5-aza-dC; assay type: functional, cell-based
U373-MAGI [12] = assay: Increase in 5-aza-dCTP/dCTP ratio in human U373-MAGI cells at 25 nM preincubated for 2 hrs followed by 5-aza-dC addition measured after 4 hrs by LC-MS/MS analysis relative to 5-aza-dC; assay type: functional, cell-based
U373-MAGI [13] = assay: Increase in 5-aza-dCTP/dCTP ratio in human U373-MAGI cells at 2.5 nM preincubated for 2 hrs followed by 5-aza-dC addition measured after 4 hrs by LC-MS/MS analysis relative to 5-aza-dC; assay type: functional, cell-based
U373-MAGI [14] = assay: Effect on dRGU-TP level in human U373-MAGI cells at 2.5 nM preincubated for 2 hrs followed by 5-aza-dC addition measured after 4 hrs by LC-MS/MS analysis; assay type: functional, cell-based
U373-MAGI [15] = assay: Reduction in 5-aza-dCTP level in human U373-MAGI cells at 25 nM preincubated for 2 hrs followed by 5-aza-C addition measured after 4 hrs by LC-MS/MS analysis; assay type: functional, cell-based
U373-MAGI [16] = assay: Effect on 5-aza-dCTP level in human U373-MAGI cells at 2.5 nM preincubated for 2 hrs followed by 5-aza-dC addition measured after 4 hrs by LC-MS/MS analysis; assay type: functional, cell-based
U373-MAGI [17] = assay: Reduction in dRGU-TP level in human U373-MAGI cells at 25 nM preincubated for 2 hrs followed by 5-aza-C addition measured after 4 hrs by LC-MS/MS analysis; assay type: functional, cell-based
U373-MAGI [18] = assay: Reduction in dATP level in human U373-MAGI cells at 25 nM after 6 hrs by LC-MS/MS analysis; assay type: functional, cell-based
[19] = Cytotoxicity against human U373-MAGI cells at 2.5 nM measured at 72 hrs by Celltiter-Glo luminescent cell viability assay; assay type: cell-based; details: 0.0025 µM
U373-MAGI [20] = assay: Reduction in dRGU-TP level in human U373-MAGI cells at 2.5 nM preincubated for 2 hrs followed by 5-aza-C addition measured after 4 hrs by LC-MS/MS analysis; assay type: functional, cell-based
U373-MAGI [21] = assay: Reduction in dCTP level in human U373-MAGI cells at 2.5 nM preincubated for 2 hrs followed by 5-aza-C addition measured after 4 hrs by LC-MS/MS analysis; assay type: functional, cell-based
U373-MAGI [22] = assay: Reduction in dGTP level in human U373-MAGI cells at 25 nM after 6 hrs by LC-MS/MS analysis; assay type: functional, cell-based
U373-MAGI [23] = assay: Effect on dRGU-TP level in human U373-MAGI cells at 25 nM preincubated for 2 hrs followed by 5-aza-dC addition measured after 4 hrs by LC-MS/MS analysis; assay type: functional, cell-based
[24] = tested on: Human immunodeficiency virus 1; assay: Antiviral activity against VSV-G pseudotyped HIV-1 NL4-3 infected in human U373-MAGI cells assessed as reduction in viral infectivity at 2.5 nM incubated for 4 hrs prior to viral infection measured at 72 hrs post infection by flow cytometric analysis; assay type: functional, organism-based
U373-MAGI [25] = assay: Reduction in dTTP level in human U373-MAGI cells at 2.5 nM after 6 hrs by LC-MS/MS analysis; assay type: functional, cell-based
U373-MAGI [26] = assay: Reduction in dCTP level in human U373-MAGI cells at 25 nM preincubated for 2 hrs followed by 5-aza-dC addition measured after 4 hrs by LC-MS/MS analysis relative to 5-aza-dC; assay type: functional, cell-based
U373-MAGI [27] = assay: Effect on 5-aza-dCTP level in human U373-MAGI cells at 25 nM preincubated for 2 hrs followed by 5-aza-dC addition measured after 4 hrs by LC-MS/MS analysis; assay type: functional, cell-based

Nc1ccn([C@@H]2O[C@H](CO)[C@@H](O)C2(F)F)c(=O)n1 [GEMCITABINE]
Activity [1]: 30%
Activity (U373-MAGI [2]): Active
Activity (U373-MAGI [3]): inactive
fold change (FC) [4]: 2.5
Activity (U373-MAGI [5]): inactive
Activity (U373-MAGI [6]): Active
Activity (U373-MAGI [7]): inactive
Activity (U373-MAGI [8]): inactive
Activity (U373-MAGI [9]): inactive
Activity (U373-MAGI [10]): inactive
Activity (U373-MAGI [11]): Active
Activity (U373-MAGI [12]): Active
Activity (U373-MAGI [13]): Active
Activity (U373-MAGI [14]): inactive
Activity (U373-MAGI [15]): Active
Activity (U373-MAGI [16]): inactive
Activity (U373-MAGI [17]): Active
Activity (U373-MAGI [18]): Active
Activity [19]: Non-toxic
Activity (U373-MAGI [20]): inactive
Activity (U373-MAGI [21]): Active
Activity (U373-MAGI [22]): Active
Activity (U373-MAGI [23]): inactive
Activity [24]: Active
Activity (U373-MAGI [25]): inactive
Activity (U373-MAGI [26]): Active
Activity (U373-MAGI [27]): inactive
